In data set [1] the target is T1, recombinant 15-PGDH (Homo sapiens (Human), UniProt P15428). Briefly: Inhibition of enzymatic activity of recombinant 15-PGDH in vitro (NADH generation). It is filed as biochemical.
The subject of data set [2] is 15-PGH-luciferase fusion protein reporter in the Vaco-9M (V9M) cell line. The data set can be described thus: 15-PGDH-luciferase fusion reporter induction in V9M cells. It is filed as cell-based. On the procedure: Some residual activity is seen for isomer B when added at 3.2 μM concentration. The small residual activity of isomer A may be due to possible 3% contamination with some residual isomer B.

Data set [3] deals with T1, recombinant 15-PGDH. Briefly: Melting temperature shift of recombinant 15-PGDH (SYPRO Orange). It is filed as binding. Particulars: Differential Scanning Fluorimetry; shifted from 50.5. Background: In DSF a fluorescence change marks the thermal transition of the protein.
Data set [4] has as its system PGE2 in colon, bone marrow, liver, lung. The data set can be described thus: PGE2 in mouse tissues after IP injection. The class given is in vivo. On the procedure: Shown is measurement by Elisa of PGE2 (ng PGE2/mg of tissue protein) from 4 mouse tissues: lung, liver, colon and bone marrow. […] Tissues were harvested for PGE2 assay at either 2 hour (2 h) or 3 hour (3 h) time points following drug injection.

Data set [5] in a line: Chemical stability in aqueous solutions. It is filed as physicochemical. The following applies: broad pH range.
Data set [6] relates to mice. Briefly: Homing of CFSE labeled donor bone marrow cells in lethally irradiated mice. The class given is in vivo, mouse. Particulars: 10 mg/kg body weight. On the procedure:
Drugs are administered following radiation, following the transplant, and again at 8 hours after the transplant.

A short description of data set [7]: Stability with mouse liver extracts. The class given is in vitro ADME.
A short description of data set [8]: Stability with human liver extracts. It is filed as in vitro ADME.
Data set [9] in a line: Stability with rat liver extracts. The class given is in vitro ADME.
For data set [10], the system named is mice. Briefly: Immediate toxicity after IP injection into mice. It is filed as in vivo. Particulars: over 24 hours; 50 mg/kg body weight IP.

T1 sequence (P15428 whole entry, the tested form may be a part): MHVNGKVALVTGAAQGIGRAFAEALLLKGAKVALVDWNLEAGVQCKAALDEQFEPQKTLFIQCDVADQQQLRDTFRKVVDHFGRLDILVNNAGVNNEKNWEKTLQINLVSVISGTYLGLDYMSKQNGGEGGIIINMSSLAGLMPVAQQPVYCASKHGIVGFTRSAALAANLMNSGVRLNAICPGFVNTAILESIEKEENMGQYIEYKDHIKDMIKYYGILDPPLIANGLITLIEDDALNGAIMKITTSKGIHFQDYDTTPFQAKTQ

On to `CCCC[S@](C)(O)c1sc2nc(-c3cccs3)cc(-c3ccccc3)c2c1N` [SW033291 isomer B], for which the “IC50 lower than the parent racemic mixture” value at recombinant 15-PGDH [1] (vs racemic SW033291) is on record as 40%. In addition, in [2], the “concentration for full activity” value was 0.1 µM. In addition, the melting temperature on recombinant 15-PGDH [3] is 68 °C.

Regarding `CCCC[S+]([O-])c1sc2nc(-c3nccs3)cc(-c3cnc(C)n3C)c2c1N` (stereo not drawn) [formula (XIII)], in data set [4] (IP dose of 10 mg/kg body weight), the “PGE2 levels in the colon, lung, liver and bone marrow” value is “elevates PGE2 levels”. The “chemical stability in aqueous solutions” value in data set [5] was “chemically stable”. At recombinant 15-PGDH [1] (enzyme concentration approximately 6 nM), the “concentration that inhibits recombinant 15-PGDH” value is 3 nM. The “homing of hematopoietic stem cells following bone marrow transplantation” value in the data set with mice [6] was “increases homing”. The “stability when incubated with liver extracts” value in [7], in data set [8] and in data set [9] was “chemically stable” each time. The immediate toxicity result in the data set on mice [10] is on record as “no immediate toxicity”.

As to (+) SW209415, the “time of peak PGE2” value in [4] (after IP injection) was 3 h.

The values above are taken from patent US20230285402A1, “Compositions and Methods of Modulating Short-Chain Dehydrogenase Activity” (BOARD OF REGENTS OF THE UNIVERSITY OF TEXAS SYSTEM, priority 2013, published 2023).
